Experiments:
Assay type in all cases: in vivo, mouse
[1] = tested on: male homozygous klotho mutant mice; assay: Male klotho mutant homozygotes raised on feed: indices of premature aging-like syndrome (blood sugar, serum inorganic phosphorus, body weight); conditions: ornithine in feed
Text: (§1) Mice carrying a klotho mutation were bred by mating a pair of heterozygous klotho mutant mice provided by Tumor Biology, Pathology, Kyoto University Graduate School of Medicine. Klotho mutant homozygotes, klotho mutant heterozygotes and wild-type mice were confirmed by PCR. Male klotho mutant homozygotes were raised on the feed prepared in Example 1 or the feed prepared in Comparative Example 1 and were intermittently weighed (number of animals: 4/group). The mice were given the powdery feed through a commercially available powder feeder (KN-675 No. 4, Natsume Seisakusho) and filtered running water, both ad libitum. The mice were raised in an SPF (specific pathogen-free) room kept at a temperature of 24±1° C. and a humidity of 55±10%. The expression level of Klotho protein was expressed as relative values based on the average value of the group raised on the feed of Comparative Example 1 up to the age of 6 weeks as 100.

Klotho protein = assay: Expression level of Klotho protein in the kidneys of male klotho mutant homozygotes raised on feed; conditions: male homozygous klotho mutant mice, ornithine in feed
Text: The determination of Klotho protein can be carried out by methods such as immune precipitation, Western blotting and enzyme-linked immunosorbent assay (ELISA) using an anti-Klotho protein antibody, and the determination of mRNA for the klotho gene can be carried out by methods such as Northern blot hybridization and reverse transcription-polymerase chain reaction (RT-PCR). The determination methods and methods for obtaining tissue samples, klotho gene, Klotho protein, probe DNA, primers, antibodies, etc. to be used in the determination are described in WO 98/29544.
as §1, with “The mice were raised in an SPF (specific pathogen-free) room kept at a temperature of 24±1° C. and a humidity of 55±10%.” left out

[2] = tested on: female klotho mutant homozygotes; assay: Body weight of female klotho mutant homozygotes raised on feed; conditions: female homozygous individuals, ornithine in feed
Text: as §1, with “The mice were raised in an SPF (specific pathogen-free) room kept at a temperature of 24±1° C. and a humidity of 55±10%.” left out
Female klotho mutant homozygotes obtained by the same method as in Example 3 were raised on the feed of Example 1 or the feed of Comparative Example 1 in the same manner as in Example 3 up to the age of 8 weeks, and their body weight was measured. […]
Female klotho mutant homozygotes obtained by the same method as in Example 3 were raised on the feed of Example 2 or the feed of Comparative Example 2 in the same manner as in Example 3 up to the age of 6 weeks, and their body weight was measured. […]

[3] = tested on: female klotho mutant homozygotes; assay: Life span of female klotho mutant homozygotes raised on feed; conditions: ornithine in feed
Text: Female klotho mutant homozygotes obtained by the same method as in Example 3 were raised on the feed of Example 1, the feed of Comparative Example 1, the feed of Example 2 or the feed of Comparative Example 2 (number of animals: 4/group) to observe their life span. The number of mice that died before reaching the age of 11 weeks was 0 and 2 in the groups fed on the feed of Example 1 and the feed of Comparative Example 1, respectively, and was 1 and 2 in the groups fed on the feed of Example 2 and the feed of Comparative Example 2, respectively.

[4] = tested on: female homozygous klotho mutant mice; assay: Breeding results of female homozygous klotho mutant mice raised on feed; conditions: ornithine in feed
Text: Male homozygous klotho mutant mice were raised on the feed of Comparative Example 3 and female homozygous klotho mutant mice were raised on the feed of Example 7 or the feed of Comparative Example 2, both to the age of 8 weeks. These male and female mice were mated and their breeding results were compared between the female group fed on the feed of Example 7 and that fed on the feed of Comparative Example 2. During the mating period, the males were transferred into the cages of females and so fed on the same feeds as the respective females.

SMILES: NCCC[C@H](N)C(=O)O [ornithine]
- Effect on premature aging-like syndrome [1]: inhibitory effects on premature aging-like syndrome
- Effect on expression level of kidney Klotho protein (Klotho protein): effective in raising the expression level of kidney Klotho protein
- Effect on body weight [2]: weight-increasing effect
- Effect on life span [3]: effective in prolonging life span
- Effect on breeding result [4]: improved the breeding result
